Measurements published in patent EP0426804B1, “2-(2-HYDROXY-3-PHENOXYPROPYLAMINO)-ETHOXYBENZENE DERIVATIVES” (IMPERIAL CHEMICAL INDUSTRIES PLC, priority 1989, dated 1990).

Columns and labels:
BAT mitochondria = experiment: test (b): GDP binding in BAT mitochondria of cold adapted rats, relative to isoprenaline; assay type: in vivo; conditions: dose necessary to produce 50% of the isoprenaline (1 mg/kg) effect on GDP binding
[1] = test (d): metabolic rate (oxygen consumption) in cold adapted rats; assay type: in vivo; conditions: at 1mgkg⁻¹ p.o.
[2] = test (c): heart rate in rats adapted to a thermoneutral environment (D500 dose and selectivity index); conditions: ratio of D₅₀₀ to ED₅₀ in test (b)

| Structure (SMILES) | ED₅₀ (BAT mitochondria) | metabolic rate [1] | SI ([2]; oral) | SI ([2]; route not stated) |
| --- | --- | --- | --- | --- |
| CCCC(=O)Cc1ccc(OCCNCC(O)COc2ccccc2)cc1 (stereo not shown) [Example 5, 1-[4-(2-(2-hydroxy-3-phenoxypropylamino)ethoxy)phenyl]pentan-2-one] | 0.23 mgkg⁻¹ | 6.6 ml O₂ min ⁻¹Kg^.75 | > 100 | – |
| CC(C)NCC(O)c1ccc(O)c(O)c1 (stereo not shown) [isoprenaline, reference compound] | – | – | – | 0.06 |
